We go through eight compounds from PubChem BioAssay (NCI).

Each structure is given as a SMILES string.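 These data come from cells grown in 96-well plates and exposed to compound for 48 hours at five concentrations. TGI denotes the concentration required for complete inhibition of growth.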

Test systems include CAKI-1 renal; COLO 205 colon; HL-60(TB) leukemia; HS 578T breast; KM12 colon; M14 melanoma; MDA-N; NCI-H226 lung; NCI-H522 lung; NCI/ADR-RES ovarian; OVCAR-5 ovarian; OVCAR-8 ovarian; PC-3 prostate; RXF 393 renal; SK-MEL-5 melanoma; SK-OV-3 ovarian; SNB-75 CNS; UO-31 renal; HOP-92 NSCLC; IGROV1 ovarian.
Test in all cases: inhibition of tumour cell growth, NCI panel, 48 h

As for `CC1(C)C2CC(O)C1CCC2=O` (centres undefined), the TGI with CAKI-1 renal, with COLO 205 colon, in the test on HL-60(TB) leukemia, with HS 578T breast, with KM12 colon and in the test with M14 melanoma was more than 100 µM in each case. Further, the TGI in the test on MDA-N, with NCI-H226 lung, with NCI-H522 lung, in the test on NCI/ADR-RES ovarian, in the test on OVCAR-5 ovarian and in the test with OVCAR-8 ovarian was more than 100 µM each time. For the same compound, the TGI in the test on PC-3 prostate, in the test with RXF 393 renal, with SK-MEL-5 melanoma, in the test with SK-OV-3 ovarian, with SNB-75 CNS and in the test on UO-31 renal was more than 100 µM in each case.

Regarding `C=CCN1COc2c(cc3c4c(cccc24)C(=O)O3)C1`, the TGI in the test on CAKI-1 renal is 49.3 µM; with COLO 205 colon it was 33.1 µM; in the test with HL-60(TB) leukemia, 50.3 µM; with HOP-92 NSCLC, 30.5 µM; in the test with IGROV1 ovarian, more than 100 µM; with KM12 colon, more than 100 µM. For the same compound, the TGI is 50.1 µM in the test on M14 melanoma; more than 100 µM with NCI-H226 lung; 28.4 µM in the test on NCI-H522 lung; more than 100 µM in the test on OVCAR-5 ovarian; more than 100 µM with OVCAR-8 ovarian; more than 10 µM with RXF 393 renal. For the same compound, the TGI with SK-MEL-5 melanoma was more than 100 µM; with SK-OV-3 ovarian, more than 100 µM; in the test with SNB-75 CNS it was 77.6 µM; in the test with UO-31 renal it was 40.8 µM.

With `O=C(NNC1=NCCCCN1)Nc1ccc(Cl)cc1`, the TGI in the test with CAKI-1 renal, with COLO 205 colon, with HL-60(TB) leukemia, with HOP-92 NSCLC, in the test with HS 578T breast and with IGROV1 ovarian was more than 100 µM in each case. Also, the TGI in the test on KM12 colon, in the test with NCI-H226 lung, in the test with NCI-H522 lung, in the test on NCI/ADR-RES ovarian, with OVCAR-5 ovarian and in the test on OVCAR-8 ovarian was more than 100 µM in each case. Also, the TGI in the test on PC-3 prostate, with RXF 393 renal, in the test with SK-MEL-5 melanoma, in the test on SK-OV-3 ovarian, in the test on SNB-75 CNS and in the test with UO-31 renal was more than 100 µM each time.

Regarding `C[Si](C)(N[Si](C)(C)OCCc1ccccc1)OCCc1ccccc1`, the TGI in the test on CAKI-1 renal, in the test with HL-60(TB) leukemia, in the test with HOP-92 NSCLC, with IGROV1 ovarian, with KM12 colon and with M14 melanoma was more than 100 µM in each case. The TGI in the test on MDA-N, in the test on NCI-H226 lung, in the test on NCI/ADR-RES ovarian, in the test with OVCAR-5 ovarian, in the test with OVCAR-8 ovarian and in the test on PC-3 prostate was more than 100 µM each time. In addition, the TGI in the test on RXF 393 renal, in the test on SK-MEL-5 melanoma, in the test on SK-OV-3 ovarian, with SNB-75 CNS and in the test with UO-31 renal was more than 100 µM in each case.

Regarding `O=c1[nH]nc(Cc2ccccc2)n1CCCl`, the TGI in the test with CAKI-1 renal, with COLO 205 colon, in the test on HL-60(TB) leukemia, in the test with HS 578T breast, in the test with IGROV1 ovarian and in the test on KM12 colon was more than 100 µM each time. In addition, the TGI in the test on M14 melanoma, in the test on MDA-N, in the test with NCI-H226 lung, with NCI/ADR-RES ovarian, with OVCAR-5 ovarian and in the test on OVCAR-8 ovarian was more than 100 µM each time. Further, the TGI in the test on PC-3 prostate, in the test on RXF 393 renal, with SK-OV-3 ovarian, in the test with SNB-75 CNS and with UO-31 renal was more than 100 µM in each case.

On to `CCOC(=O)c1cc2c3c(c(C(C)=O)c(O)c2[nH]1)N(C(C)=O)CC3`, for which the TGI in the test with CAKI-1 renal, in the test on COLO 205 colon, with HL-60(TB) leukemia, with HS 578T breast, in the test on IGROV1 ovarian and with KM12 colon was more than 100 µM throughout. For the same compound, the TGI in the test with M14 melanoma, in the test on MDA-N, in the test with NCI-H226 lung, in the test on NCI/ADR-RES ovarian, in the test on OVCAR-5 ovarian and with OVCAR-8 ovarian was more than 100 µM throughout. For the same compound, the TGI in the test with PC-3 prostate, in the test on RXF 393 renal, with SK-MEL-5 melanoma, with SK-OV-3 ovarian, with SNB-75 CNS and in the test on UO-31 renal was more than 100 µM in each case.

Take `O=C1C=CC(=O)c2c1ccc1c3ccccc3n(-c3ccccc3)c21`: the TGI in the test with CAKI-1 renal is 19.6 µM; in the test with COLO 205 colon, 22.8 µM; with HL-60(TB) leukemia, 2.34 µM; with HOP-92 NSCLC it was 7.78 µM; in the test on HS 578T breast, 60.5 µM; in the test on IGROV1 ovarian it was 34.5 µM. The TGI with KM12 colon is 37.7 µM; in the test on M14 melanoma it was 21.2 µM; in the test on MDA-N it was 18.3 µM; in the test with NCI-H226 lung, 40 µM; with NCI-H522 lung it was 3.15 µM; in the test on OVCAR-5 ovarian, 31.7 µM. The TGI with OVCAR-8 ovarian came to 11 µM; in the test on PC-3 prostate, 27 µM; in the test with RXF 393 renal it was 5.34 µM; with SK-MEL-5 melanoma, 31.2 µM; in the test on SK-OV-3 ovarian it was 39.3 µM; in the test on SNB-75 CNS it was 40.2 µM. This compound also showed a TGI in the test on UO-31 renal of 25.5 µM.

On to `O=C(O)c1nc2ccc(C(F)(F)F)cc2nc1NCc1ccc(Cl)c(Cl)c1`, for which the TGI in the test with CAKI-1 renal amounted to 36.9 µM; in the test with COLO 205 colon, 37.4 µM; with HOP-92 NSCLC, 32.2 µM; in the test on IGROV1 ovarian, 30.7 µM; with KM12 colon, 33.8 µM; with M14 melanoma, 31.6 µM. Moreover, the TGI in the test on MDA-N amounted to 35.1 µM; in the test on NCI-H226 lung it was 44.1 µM; in the test with NCI/ADR-RES ovarian it was 42.7 µM; in the test on OVCAR-5 ovarian it was 26.3 µM; in the test with OVCAR-8 ovarian it was 32.8 µM; in the test on PC-3 prostate, 29.4 µM. Moreover, the TGI in the test with SK-MEL-5 melanoma amounted to 37.5 µM; with SK-OV-3 ovarian it was 38.5 µM; with SNB-75 CNS it was 39.1 µM; in the test with UO-31 renal it was 26.2 µM.
